{
  "source": "patent US11882828B2",
  "about": "“Mosquito vector control compositions, methods and products utilizing same” (priority 2015, dated 2024)",
  "key": {"[1]": {"tested_on": "Aedes aegypti (Yellow fever mosquito)", "experiment": "whole plant or invertebrate", "conditions": "Aedes aegypti", "method": "[…] Once the deposits were dry, five non-blood fed adult female Aedes aegypti (between two to five days old) were added to each well, and sustained with a 10% sucrose solution in a cotton wool plug. Assessment of the knockdown after 1 hour, and mortality after 48 hours was carried out.\n(§1) In case of multiple tests, the mean value is reported."}, "[2]": {"tested_on": "Anopheles stephensi", "experiment": "whole plant or invertebrate", "conditions": "Anopheles stephensi, 48 h", "outline": "(§2)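 Non-blood-fed adult females (2–5 days old), ten per well, were placed on dried ethanol deposits of the test compound at a defined concentration and fed 10% sucrose. Mortality was scored at 48 hours as the mean of two replicates.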"}, "[3]": {"tested_on": "Aedes aegypti", "experiment": "whole plant or invertebrate", "conditions": "Aedes aegypti, 48 h", "outline": "as §2"}, "[4]": {"tested_on": "An. Gambiae Kisumu sus", "experiment": "Example B5: bottle based cross resistance study (CDC bottle assay)", "format": "in vivo", "conditions": "Kisumu sus"}, "[5]": {"tested_on": "FUMOZ", "experiment": "Example B5: bottle based cross resistance study (CDC bottle assay)", "format": "in vivo", "conditions": "Anopheles funestus, 24 h, Table B5c; 25 ppm; after 24 hours; FUMOZ", "outline": "(§3)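 Glass bottles were coated with test compound from ethanol. Mortality was scored at 24 h after recovery on 10% sucrose; values are means of ≥4 replicates, with a susceptible strain run alongside.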"}, "[6]": {"tested_on": "An. stephensi", "experiment": "Example B5: bottle based cross resistance study (CDC bottle assay)", "format": "in vivo"}, "[7]": {"tested_on": "An. Gambiae Tiassalé", "experiment": "Example B5: bottle based cross resistance study (CDC bottle assay)", "format": "in vivo"}, "[8]": {"tested_on": "VK7", "experiment": "Example B5: bottle based cross resistance study (CDC bottle assay)", "format": "in vivo", "conditions": "Anopheles coluzzii, 24 h, Table B5c, after 24 hours", "outline": "as §3"}, "[9]": {"tested_on": "An. Gambiae Kisumu sus", "experiment": "Example B4: cross resistance study, 6-well plate", "format": "in vivo", "method": "(§4) In each study, a set of plates were infested with a known insecticide susceptible strain of mosquitoes from the same genera as the resistant strains.\n(§5) Assessment of the knockdown after 60 minutes and mortality after 24 hours was carried out. Each treatment was replicated a minimum of four times, with the mean knockdown or mortality recorded.\n(§6) A comparison of the knockdown and mortality of the resistant strain of mosquitoes was made to that of the susceptible to identify evidence of cross resistance."}, "[10]": {"tested_on": "Ae. aegypti Caymon", "experiment": "Example B4: cross resistance study, 6-well plate", "format": "in vivo", "method": "as §4, §5, §6"}, "[11]": {"tested_on": "An. Gambiae Kisumu rdl", "experiment": "Example B4: cross resistance study, 6-well plate", "format": "in vivo", "method": "as §4, §5, §6"}, "[12]": {"tested_on": "An. stephensi", "experiment": "Example B4: cross resistance study, 6-well plate", "format": "in vivo", "method": "as §4, §5, §6"}, "[13]": {"tested_on": "An. Gambiae Tiassalé", "experiment": "Example B4: cross resistance study, 6-well plate", "format": "in vivo", "method": "as §4, §5, §6"}, "[14]": {"tested_on": "Ae. Aegypti New Orleans", "experiment": "Example B4: cross resistance study, 6-well plate", "format": "in vivo", "method": "as §4, §5, §6"}, "[15]": {"tested_on": "An. Arabiensis Moz sus", "experiment": "Example B4: cross resistance study, 6-well plate", "format": "in vivo", "method": "as §4, §5, §6"}, "[16]": {"tested_on": "Anopheles stephensi (Indian malaria mosquito)", "experiment": "whole plant or invertebrate", "conditions": "Anopheles stephensi", "method": "[…] Once the deposits were dry, five non-blood fed adult female Anopheles stephensi (between two to five days old) were added to each well, and sustained with a 10% sucrose solution in a cotton wool plug. Assessment of the knockdown after 1 hour, and mortality after 48 hours was carried out.\nas §1"}},
  "data": [
    {"smiles": "CO/C=C(/C(=O)OC)c1ccccc1Oc1nc(C(C)(C)C)ns1", "note": "[Compound 7, Methyl (E)-2-[2-[(3-tert-butyl-1,2,4-thiadiazol-5-yl)oxy]phenyl]-3-methoxy-prop-2-enoate]", "values": [
      {"measurement": "pest or weed control at 20 ppm", "setting": "[1]; 1 h, read-out: Knockdown", "result": 100, "unit": "%"},
      {"measurement": "mortality at 20 ppm", "setting": "[1]; 48 h", "result": 100, "unit": "%"},
      {"measurement": "mortality at 5 ppm", "setting": "[2]", "result": 95, "unit": "%"},
      {"measurement": "mortality at 5 ppm", "setting": "[3]", "result": 78, "unit": "%"},
      {"measurement": "Knockdown (%) at 15 mins", "setting": "[4]; 20 ppm, bottle", "result": 100, "unit": "%"},
      {"measurement": "Knockdown (%) at 60 mins", "setting": "[4]; 20 ppm, bottle", "result": 100, "unit": "%"},
      {"measurement": "mortality at 20 ppm", "setting": "[4]; Anopheles gambiae, 20 ppm, bottle, one hour exposure, after 24 hours", "result": 99, "unit": "%"},
      {"measurement": "mortality at 25 ppm", "setting": "[4]; Anopheles gambiae, 24 h, Table B5c, 25 ppm, after 24 hours", "result": 97, "unit": "%"},
      {"measurement": "mortality at 25 ppm", "setting": "[5]", "result": 20, "unit": "%"},
      {"measurement": "Knockdown (%) at 15 mins", "setting": "[6]; 20 ppm, bottle, An. stephensi", "result": 37, "unit": "%"},
      {"measurement": "Knockdown (%) at 60 mins", "setting": "[6]; 20 ppm, bottle, An. stephensi", "result": 100, "unit": "%"},
      {"measurement": "mortality at 20 ppm", "setting": "[6]; Anopheles stephensi", "result": 100, "unit": "%"},
      {"measurement": "Knockdown (%) at 15 mins", "setting": "[7]; 20 ppm, bottle, Tiassalé", "result": 70, "unit": "%"},
      {"measurement": "Knockdown (%) at 60 mins", "setting": "[7]; 20 ppm, bottle, Tiassalé", "result": 97, "unit": "%"},
      {"measurement": "mortality at 20 ppm", "setting": "[7]; Anopheles gambiae", "result": 95, "unit": "%"},
      {"measurement": "mortality at 25 ppm", "setting": "[8]", "result": 19, "unit": "%"},
      {"measurement": "Knockdown", "setting": "[9]; 2.50 ppm, after 60 minutes, Kisumu sus", "result": 100, "unit": "%"},
      {"measurement": "mortality at 2.5 ppm", "setting": "[9]; Anopheles gambiae, 24 h", "result": 100, "unit": "%"},
      {"measurement": "Knockdown", "setting": "[10]; 2.50 ppm, after 60 minutes, Caymon", "result": 52, "unit": "%"},
      {"measurement": "mortality at 2.5 ppm", "setting": "[10]; Aedes aegypti, 24 h", "result": 28, "unit": "%"},
      {"measurement": "Knockdown", "setting": "[11]; 2.50 ppm, after 60 minutes, Kisumu rdl", "result": 90, "unit": "%"},
      {"measurement": "mortality at 2.5 ppm", "setting": "[11]; Anopheles gambiae, 24 h", "result": 100, "unit": "%"},
      {"measurement": "Knockdown", "setting": "[12]; 2.50 ppm, after 60 minutes, An. stephensi", "result": 40, "unit": "%"},
      {"measurement": "mortality at 2.5 ppm", "setting": "[12]; Anopheles stephensi, 24 h", "result": 100, "unit": "%"},
      {"measurement": "Knockdown", "setting": "[13]; 2.50 ppm, after 60 minutes, Tiassalé", "result": 90, "unit": "%"},
      {"measurement": "mortality at 2.5 ppm", "setting": "[13]; Anopheles gambiae, 24 h", "result": 85, "unit": "%"},
      {"measurement": "Knockdown", "setting": "[14]; 2.50 ppm, after 60 minutes, New Orleans", "result": 38, "unit": "%"},
      {"measurement": "mortality at 2.5 ppm", "setting": "[14]; Aedes aegypti, 24 h", "result": 100, "unit": "%"},
      {"measurement": "Knockdown", "setting": "[15]; 2.50 ppm, after 60 minutes, Moz sus", "result": 95, "unit": "%"},
      {"measurement": "mortality at 2.5 ppm", "setting": "[15]; Anopheles arabiensis, 24 h", "result": 100, "unit": "%"},
      {"measurement": "pest or weed control at 20 ppm", "setting": "[16]; 1 h, read-out: Knockdown", "result": 67, "unit": "%"},
      {"measurement": "mortality at 20 ppm", "setting": "[16]; 48 h", "result": 100, "unit": "%"}
    ]}
  ]
}
